{"source": "patent US5047512A", "about": "“Immobilized cyclophilin and methods of using such” (priority 1987, dated 1991)", "key": {"[1]": {"assay": "CsA binding activity (3H-CsA binding, Sephadex LH-20 columns)", "conditions": "for CsA binding specific activity: purified bovine isoforms, weak cation exchange HPLC; for CsA bound per mole of cyclophilin species: stoichiometry, major and minor isoforms", "experimental": "A typical procedure for the purification of cyclophilin will next be described. […] After addition of 10 ul ^3 H-CsA (50 ug/ml; 0.05 uCi/ml in 40% ethanol), tubes were agitated gently and 50 ul was applied to 1.8 ml Sephadex LH-20 (hydroxypropylated […]) columns pre-equilibrated with assay buffer. The samples were then washed into the columns with 500 ul of assay buffer followed by an additional 500 ul to elute cyclophilin-CsA complexes. Elution fractions were diluted in 5.6 ml Liquiscint (a fluor-containing liquid to permit β-scintillation counting of ^3 H) and the binding activity quantified as equal to (cpm - background).div.(quench correction×^3 H-CsA specific activity)×(volume of test sample).\nThe isoforms of bovine cyclophilin were separated by weak cation exchange high pressure liquid chromatography. […] Samples were injected onto a weak cation exchange HPLC column (Synchropak CM300:[…]; pore size 300 Å) pre-equilibrated with 5 mM potassium phosphate, 5 mM 2-ME, pH 7.2. The isoforms were eluted at 1 ml/min with a concave gradient (5 mM potassium phosphate, pH 7.2 to 175 mM NaCl, 5 mM potassium phosphate, pH 7.2) generated with a gradient programmer. Milligram quantities of the bovine cyclophilin isoforms were obtained by automating injection, gradient elution and collection. […] The disassociation constant is about 2×10^-7 M."}, "[2]": {"assay": "Retention of analog relative to CsA on a uBondapak phenyl column as a measure of hydrophobicity", "type": "physicochemical", "conditions": "isocratic 60% acetonitrile, 1 ml/min"}, "cyclophilin": {"target": "T1, cyclophilin (Bos taurus, UniProt P62935)", "T1 construct": "from tissue; host or cells: purified from tissue cytosol", "T1 sequence (P62935 whole entry)": "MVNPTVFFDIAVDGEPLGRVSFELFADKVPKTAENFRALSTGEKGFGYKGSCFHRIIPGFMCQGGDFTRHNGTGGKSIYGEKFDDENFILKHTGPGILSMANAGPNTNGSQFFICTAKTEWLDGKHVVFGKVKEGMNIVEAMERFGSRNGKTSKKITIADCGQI", "assay": "Cyclophilin affinity: enhancement of the intrinsic tryptophan fluorescence of cyclophilin by CsA or analogs", "type": "binding", "conditions": "5 ug/ml cyclophilin, pH 7.2; for Cyclophilin affinity 0.25 ug/ml: ligand 0.25 ug/ml; for Cyclophilin affinity 1.0 ug/ml: ligand 1.0 ug/ml"}, "[3]": {"assay": "Isoelectric point of cyclophilin", "type": "physicochemical", "experimental": "The column was harvested at a flow rate of 1 ml/min. and the pH of each fraction was measured prior to titration with 1M potassium dihydrogen phosphate to pH 7.0."}, "[4]": {"assay": "Stability of CsA binding activity of cyclophilin", "type": "physicochemical", "source_text": "Similarly, it can be used to purify the ligand from a composition containing ligand. For example, the cyclophilin can be used for purifying CsA or related structures from a yeast fermentation broth in which the CsA is produced. Further, it can be used to select compounds which bind to cyclophilin as a screening test for identifying new immunosuppressant drugs. In these various procedures, it is preferred, although not required, to immobilize the cyclophilin. This can be accomplished by any procedure known in the art. A particularly useful immobilizing matrix is agarose having carboxy terminated C12 spacer arm esterfied to N-hydroxysuccinimide. This matrix is commercially available under the name Affigel-10 (Biorad). The immobilized cyclophilin is prepared by effecting a transamination with the N-hydroxysuccinimide being split off and the cyclophilin replacing it. The binding of the cyclophilin to this matrix can result in a marked stabilization of the bound activity through a three-dimensional stabilization achieved by multiple bonds through the ε-amino groups of lysine."}}, "note": "Where “and” joins values, the source holds several entries; their conditions need not be identical. Equal entries are not always repeated. Where a SMILES comes first, the peptide text is derived from it. [ ]: non-standard residue; d: D form. NMe(dihydroBmt) = CCCC[C@@H](C)[C@@H](O)[C@H](NC)C(=O)O; NMeL = CN[C@@H](CC(C)C)C(=O)O; NMeV = CN[C@H](C(=O)O)C(C)C; Sar = CNCC(=O)O"}
{"compound": "minor isoform of cyclophilin: minor isoform of bovine cyclophilin separated by weak cation exchange HPLC", "values": [{"measurement": "CsA binding specific activity", "setting": "[1]", "value": "67 ug per mg of protein"}, {"measurement": "CsA bound per mole of cyclophilin species", "setting": "[1]", "value": "about one"}]}
{"compound": "C/C=C/C[C@@H](C)[C@@H](O)[C@H]1C(=O)N[C@@H](C(C)C)C(=O)N(C)CC(=O)N(C)[C@@H](CC(C)C)C(=O)N[C@@H](C(C)C)C(=O)N(C)[C@@H](CC(C)C)C(=O)N[C@@H](C)C(=O)N[C@H](C)C(=O)N(C)[C@@H](CC(C)C)C(=O)N(C)[C@@H](CC(C)C)C(=O)N(C)[C@@H](C(C)C)C(=O)N1C", "note": "[CsD]", "values": [{"measurement": "Retention time of analog relative to CsA", "setting": "[2]", "value": 1.20}, {"measurement": "Cyclophilin affinity 0.25 ug/ml", "setting": "cyclophilin", "value": 0.21}, {"measurement": "Cyclophilin affinity 1.0 ug/ml", "setting": "cyclophilin", "value": 0.69}]}
{"compound": "Human cyclophilin: N-terminal sequence (72 residues) of bovine and human cyclophilin is completely identical", "values": [{"measurement": "isoelectric point", "setting": "[3]", "value": "7.4 and 9.1"}]}
{"compound": "cyclophilin: homogeneous cytosolic binding protein which has a molecular weight of approximately 17,600 daltons", "values": [{"measurement": "CsA binding specific activity of purified cyclophilin", "setting": "[1]; purified cyclophilin", "value": "above 50 ug per mg of protein"}, {"measurement": "stability of CsA binding activity", "setting": "[4]; temperature, pH, proteases, in words", "value": "unstable at 56 °C and at pH 4 or 9.5, and sensitive to proteases, i.e. trypsin"}, {"measurement": "irreversible loss of CsA binding activity", "setting": "[4]; unbound cyclophilin in solution with 8M urea, after dialysis", "value": "at least 60%"}, {"measurement": "loss of CsA binding activity in 30% acetonitrile", "setting": "[4]; unbound cyclophilin, 10 minute exposure to 30% acetonitrile", "value": "complete loss of activity"}]}
{"compound": "C/C=C/C[C@@H](C)[C@@H](O)[C@H]1C(=O)N[C@@H]([C@@H](C)O)C(=O)N(C)CC(=O)N(C)[C@@H](CC(C)C)C(=O)N[C@@H](C(C)C)C(=O)N(C)[C@@H](CC(C)C)C(=O)N[C@@H](C)C(=O)N[C@H](C)C(=O)N(C)[C@@H](CC(C)C)C(=O)N(C)[C@@H](CC(C)C)C(=O)N(C)[C@@H](C(C)C)C(=O)N1C", "note": "[CsC, cyclosporin C]", "values": [{"measurement": "Retention time of analog relative to CsA", "setting": "[2]", "value": 0.70}, {"measurement": "Cyclophilin affinity 0.25 ug/ml", "setting": "cyclophilin", "value": 0.31}, {"measurement": "Cyclophilin affinity 1.0 ug/ml", "setting": "cyclophilin", "value": 0.69}]}
{"compound": "major isoform of cyclophilin: major isoform of bovine cyclophilin separated by weak cation exchange HPLC", "values": [{"measurement": "CsA binding specific activity", "setting": "[1]", "value": "77 ug per mg of protein"}, {"measurement": "CsA bound per mole of cyclophilin species", "setting": "[1]", "value": "about one"}]}
{"compound": "CCCC[C@@H](C)[C@@H](O)[C@H]1C(=O)N[C@@H](C(C)C)C(=O)N(C)CC(=O)N(C)[C@@H](CC(C)C)C(=O)N[C@@H](C(C)C)C(=O)N(C)[C@@H](CC(C)C)C(=O)N[C@@H](C)C(=O)N[C@H](C)C(=O)N(C)[C@@H](CC(C)C)C(=O)N(C)[C@@H](CC(C)C)C(=O)N(C)[C@@H](C(C)C)C(=O)N1C", "note": "[Dihydro-CsD] (cyclo(A[dA][NMeL][NMeL][NMeV][NMe(dihydroBmt)]V[Sar][NMeL]V[NMeL]))", "values": [{"measurement": "Retention time of analog relative to CsA", "setting": "[2]", "value": 1.28}, {"measurement": "Cyclophilin affinity 0.25 ug/ml", "setting": "cyclophilin", "value": 0.19}, {"measurement": "Cyclophilin affinity 1.0 ug/ml", "setting": "cyclophilin", "value": 0.72}]}
{"compound": "Bovine cyclophilin: Bovine thymocyte cyclophilin contains 163 amino acid residues; sequence in FIG. 1", "values": [{"measurement": "isoelectric point", "setting": "[3]", "value": "about 9.6"}]}
{"compound": "C/C=C/C[C@@H](C)[C@@H](O)[C@H]1C(=O)N[C@@H](CCC)C(=O)N(C)CC(=O)N(C)[C@@H](CC(C)C)C(=O)N[C@@H](C(C)C)C(=O)N(C)[C@@H](CC(C)C)C(=O)N[C@@H](C)C(=O)N[C@H](C)C(=O)N(C)[C@@H](CC(C)C)C(=O)N(C)[C@@H](CC(C)C)C(=O)N(C)[C@@H](C(C)C)C(=O)N1C", "note": "[CsG]", "values": [{"measurement": "Retention time of analog relative to CsA", "setting": "[2]", "value": 1.14}, {"measurement": "Cyclophilin affinity 0.25 ug/ml", "setting": "cyclophilin", "value": 0.30}, {"measurement": "Cyclophilin affinity 1.0 ug/ml", "setting": "cyclophilin", "value": 0.87}]}
{"compound": "CCCC[C@@H](C)[C@@H](O)[C@H]1C(=O)N[C@@H]([C@@H](C)O)C(=O)N(C)CC(=O)N(C)[C@@H](CC(C)C)C(=O)N[C@@H](C(C)C)C(=O)N(C)[C@@H](CC(C)C)C(=O)N[C@@H](C)C(=O)N[C@H](C)C(=O)N(C)[C@@H](CC(C)C)C(=O)N(C)[C@@H](CC(C)C)C(=O)N(C)[C@@H](C(C)C)C(=O)N1C", "note": "[Dihydro-CsC] (cyclo(A[dA][NMeL][NMeL][NMeV][NMe(dihydroBmt)]T[Sar][NMeL]V[NMeL]))", "values": [{"measurement": "Retention time of analog relative to CsA", "setting": "[2]", "value": 0.79}, {"measurement": "Cyclophilin affinity 0.25 ug/ml", "setting": "cyclophilin", "value": 0.33}, {"measurement": "Cyclophilin affinity 1.0 ug/ml", "setting": "cyclophilin", "value": 0.70}]}
{"compound": "C/C=C/C[C@@H](C)[C@@H](OC(C)=O)[C@H]1C(=O)N[C@@H](CC)C(=O)N(C)CC(=O)N(C)[C@@H](CC(C)C)C(=O)N[C@@H](C(C)C)C(=O)N(C)[C@@H](CC(C)C)C(=O)N[C@@H](C)C(=O)N[C@H](C)C(=O)N(C)[C@@H](CC(C)C)C(=O)N(C)[C@@H](CC(C)C)C(=O)N(C)[C@@H](C(C)C)C(=O)N1C", "note": "[O-Acetyl-CsA]", "values": [{"measurement": "Retention time of analog relative to CsA", "setting": "[2]", "value": 1.69}, {"measurement": "Cyclophilin affinity 0.25 ug/ml", "setting": "cyclophilin", "value": -0.02}, {"measurement": "Cyclophilin affinity 1.0 ug/ml", "setting": "cyclophilin", "value": -0.03}]}
